# Experimental data reported in ChEMBL document CHEMBL4130361, “Synthesis, molecular modeling studies and bronchodilation properties of nicotinonitrile containing-compounds” (Eur J Med Chem, 2017).
# Test system: Trachea
# Experiment: Induction of bronchodilation in guinea pig tracheal rings assessed as reduction in histamine-induced contractions
# Format: functional, tissue-based
# Settings: Cavia porcellus
row,SMILES,IC50
1,COc1nc(-c2ccccc2)cc(-c2ccc(Cl)cc2Cl)c1C#N,5.34 µM
2,CCOc1nc2c(c(-c3ccc(Cl)cc3Cl)c1C#N)-c1ccccc1CC2,7.07 µM
3,COc1nc2c(c(-c3ccc(Cl)cc3Cl)c1C#N)CSc1ccccc1-2,11 µM
4,N#Cc1c(-c2ccc(Cl)cc2Cl)cc(-c2ccc(Cl)cc2)nc1Br,9.14 µM
5,COc1cc2c(cc1OC)-c1nc(OC)c(C#N)c(-c3ccc(Cl)cc3Cl)c1C2,6.8 µM
6,CN1CCN(c2nc(-c3ccc(Cl)cc3)cc(-c3ccc(Cl)cc3Cl)c2C#N)CC1,13 µM
7,COc1nc(-c2ccc3ccccc3c2)cc(-c2ccc(Cl)cc2Cl)c1C#N,9.4 µM
8,CCOc1nc(-c2ccc(F)cc2)cc(-c2ccc(Cl)cc2Cl)c1C#N,8.02 µM
9,COc1nc(-c2ccc(Cl)cc2)cc(-c2ccc(Cl)cc2Cl)c1C#N,7.55 µM
10,COc1nc(-c2ccc(C)cc2)cc(-c2ccc(Cl)cc2Cl)c1C#N,10.6 µM
11,CCN1CCN(c2nc(-c3ccc(Cl)cc3)cc(-c3ccc(Cl)cc3Cl)c2C#N)CC1,15.8 µM
12,N#Cc1c(-c2ccc(Cl)cc2Cl)cc(-c2ccc(Cl)cc2)nc1N1CCCCC1,7.83 µM
13,CCOc1nc(-c2ccc(Br)cc2)cc(-c2ccc(Cl)cc2Cl)c1C#N,12.4 µM
14,COc1nc(-c2cccnc2)cc(-c2ccc(Cl)cc2Cl)c1C#N,17.1 µM
15,COc1ccc(-c2cc(-c3ccc(Cl)cc3Cl)c(C#N)c(OC)n2)cc1OC,7.91 µM
16,CCOc1nc2c(c(-c3ccc(Cl)cc3Cl)c1C#N)-c1ccccc1C2,11 µM
17,COc1nc(-c2ccc(F)cc2)cc(-c2ccc(Cl)cc2Cl)c1C#N,7.43 µM
18,COc1nc2c(c(-c3ccc(Cl)cc3Cl)c1C#N)COc1ccccc1-2,6.11 µM
19,CCOc1nc(-c2ccc(Cl)cc2)cc(-c2ccc(Cl)cc2Cl)c1C#N,9.38 µM
20,Cn1c(=O)c2nc[nH]c2n(C)c1=O [THEOPHYLLINE],11.6 µM

# Further molecules by falling IC50, results first:
row,IC50,SMILES
1,13 µM,CCOc1nc2c(c(-c3ccc(Cl)cc3Cl)c1C#N)CCCc1ccccc1-2
2,11.8 µM,COc1nc(-c2ccncc2)cc(-c2ccc(Cl)cc2Cl)c1C#N
3,10 µM,COc1nc2c(c(-c3ccc(Cl)cc3Cl)c1C#N)CCCc1ccccc1-2
4,9.89 µM,COc1ccc(-c2cc(-c3ccc(Cl)cc3Cl)c(C#N)c(OC)n2)cc1
5,9.11 µM,COc1nc2c(c(-c3ccc(Cl)cc3Cl)c1C#N)-c1ccccc1C2
6,8.71 µM,CCOc1nc(-c2cccs2)cc(-c2ccc(Cl)cc2Cl)c1C#N
7,8.02 µM,COc1nc(-c2ccc(Br)cc2)cc(-c2ccc(Cl)cc2Cl)c1C#N
8,6.71 µM,N#Cc1c(-c2ccc(Cl)cc2Cl)cc(-c2ccc(Cl)cc2)nc1N1CCOCC1
9,6.36 µM,COc1nc2c(c(-c3ccc(Cl)cc3Cl)c1C#N)-c1ccccc1CC2
10,3.28 µM,COc1nc(-c2cccs2)cc(-c2ccc(Cl)cc2Cl)c1C#N

# Test system: Trachea
# Experiment: Potency index, ratio of theophylline IC50 to test compound IC50 for reduction in histamine-induced contractions in guinea pig tracheal rings
# Format: functional, Cavia porcellus
# Settings: not given
row,SMILES,Ratio IC50
1,COc1nc(-c2ccccc2)cc(-c2ccc(Cl)cc2Cl)c1C#N,2
